Active and inactive are the calls of the source. The rule behind the calls is not given here.

In experiment [1] the test system is EAT. Briefly: Antiangiogenic activity in Mus musculus (mouse) EAT xenografted in Mus musculus (mouse) assessed as reduction of vascularization at 100 mg/kg, ip administered day 7 to 11 post tumor implantation measured on day 12 relative to control. Format: functional, organism-based. More on the design: dose 100 mg/kg.
The subject of experiment [2] is EAT. The experiment in a line: (§1) Antitumor activity against Mus musculus (mouse) EAT xenografted in Mus musculus (mouse) assessed as decrease in tumor volume at 100 mg/kg, ip administered day 7 to 11 post tumor implantation measured on day 12 (reference value: 7.6 +/- 0.9 ml). Format: functional.
The nature of experiment [3]: Antitumor activity against Mus musculus (mouse) EAT xenografted in Mus musculus (mouse) assessed as increase in life span at 100 mg/kg, ip administered day 7 to 11 post tumor implantation measured up to 28 days relative to control. It is filed as functional. The settings on record: route intraperitoneal.
In experiment [4] the test system is EAT. The experiment in a line: Antitumor activity against Mus musculus (mouse) EAT xenografted in Mus musculus (mouse) assessed as decrease in body weight at 100 mg/kg, ip administered day 7 to 11 post tumor implantation measured on day 12 relative to control.
The nature of experiment [5]: as §1. Format: functional. The settings on record: route intraperitoneal.

In the case of `COC(=O)C(Cc1ccc(O)cc1)NC(=O)CN1C(=O)/C(=C/c2ccc(-c3ccc(Cl)cc3)o2)SC1=S` (configuration not stated), the result in the experiment on EAT [1], with EAT [2] and with EAT [4] was Active. The Activity in experiment [3] is recorded as 25%.
With `COc1ccc(CCNC(=O)CN2C(=O)/C(=C/c3ccc(-c4ccc(Cl)cc4)o3)SC2=S)cc1`, the result in the experiment with EAT [1] and in the experiment with EAT [4] was Active. For the same molecule, the Activity worked out at 5.7 mL in experiment [5] and 37.5% in experiment [3].
Turning to `Cc1nc(-c2ccc(NC(=O)CN3C(=O)/C(=C/c4ccc(-c5ccc(Cl)cc5)o4)SC3=S)cc2)no1`, the outcome in the experiment with EAT [1] and in the experiment with EAT [4] was Active. In addition, the Activity was found to be 5.2 mL in experiment [5] and 43.75% in experiment [3].
Turning to `CCCCNC(=O)CN1C(=O)/C(=C/c2ccc(-c3ccc(Cl)cc3)o2)SC1=S`, the outcome in the experiment on EAT [1] and in the experiment with EAT [4] was Active. Further, in experiment [3], the Activity came out at 12.5%.
As to `COc1ccc(Cn2nc(C3CC3)cc2NC(=O)CN2C(=O)/C(=C/c3ccc(-c4ccc(Cl)cc4)o3)SC2=S)cc1`, the outcome in the experiment on EAT [1] and with EAT [4] was Active. The Activity was 4.8 mL in experiment [5] and 56.25% in experiment [3].
Turning to `O=C(CN1C(=O)/C(=C/c2ccc(-c3ccc(Cl)cc3)o2)SC1=S)Nc1ccon1`, the result in the experiment with EAT [1], in the experiment on EAT [2] and in the experiment with EAT [4] was Active. In experiment [3], the Activity was found to be 18.25%.
On to `O=C(CN1C(=O)/C(=C/c2ccc(-c3ccc(Cl)cc3)o2)SC1=S)N1CCN(c2ccccc2F)CC1`, for which the result with EAT [1], in the experiment on EAT [2] and in the experiment on EAT [4] was Active. The Activity in experiment [3] is on record as 31.25%.

The record behind these values is ChEMBL document CHEMBL3046799, “Synthesis and in vivo anticancer and antiangiogenic effects of novel thioxothiazolidin-4-one derivatives against transplantable mouse tumor” (2010).
